According to US10105357B2, “Indication of antibiotic drugs for preparation of cancer inhibition pharmaceutical composition” (LAUNX BIOMEDICAL CO., LTD., priority 2014, dated 2018):
Counter-ions that a name gives are not always drawn. Like-named read-outs stand apart in the source and are kept apart here.

Key:
cancer cell lines = test: Cell viability analysis (WST-1) on cancer cell lines; assay type: cell-based, human; conditions: drug 10 μM, 72 hours, WST-1; Table 3
[1] = system: HI650 (Lung Adenocarcinoma); test: Cell viability analysis, lung cancer HI650; assay type: cell-based, human; conditions: Homo sapiens, NCI-H1650, 72 h
[2] = system: A549 (Lung Adenocarcinoma); test: Cell viability analysis, lung cancer A549; assay type: cell-based, human; conditions: Homo sapiens, A549, 72 h
[3] = system: AGS (Gastric Adenocarcinoma); test: Cell viability analysis, gastric cancer AGS; assay type: cell-based, human; conditions: Homo sapiens, 72 h
[4] = system: MKN-45 (Gastric Adenocarcinoma); test: Cell viability analysis, gastric cancer MKN-45; assay type: cell-based, human; conditions: Homo sapiens, MKN-45, 72 h
[5] = system: HepG2 (Hepatocellular Carcinoma); test: Cell viability analysis, hepatic cancer HepG2; assay type: cell-based, human; conditions: Homo sapiens, HepG2, 72 h
[6] = system: Hep3B (hepatocellular carcinoma); test: Cell viability analysis, hepatic cancer Hep3B; assay type: cell-based, human; conditions: Homo sapiens, 72 h; Hep3B; repeated experiment; read-out: The results of antibiotic drug inhibiting cancer cell lines (cell viability analysis), Hep3B
[7] = system: LoVo (Colorectal Adenocarcinoma); test: Cell viability analysis, colon cancer LoVo; assay type: cell-based, human; conditions: Homo sapiens, LoVo, 72 h
[8] = system: A375 (Amelanotic Melanoma); test: Cell viability analysis, skin cancer A375; assay type: cell-based, human; conditions: Homo sapiens, A-375, 72 h
[9] = system: BCC (basal cell carcinoma); test: Cell viability analysis, skin cancer BCC; assay type: cell-based, human; conditions: Homo sapiens, 72 h; BCC; repeated experiment; read-out: The results of antibiotic drug inhibiting cancer cell lines (cell viability analysis), BCC
[10] = system: HeLa (Cervix Adenocarcinoma); test: Cell viability analysis, cervical cancer HeLa; assay type: cell-based, human; conditions: Homo sapiens, HeLa, 72 h, HeLa
[11] = system: C-33A (Cervical carcinoma); test: Cell viability analysis, cervical cancer C-33A; assay type: cell-based, human; conditions: Homo sapiens, 72 h; C-33A; repeated experiment; read-out: The results of antibiotic drug inhibiting cancer cell lines (cell viability analysis), C-33A
[12] = system: TSGH-8301 (Urinary Bladder Carcinoma); test: Cell viability analysis, bladder cancer TSGH-8301; assay type: cell-based, human; conditions: Homo sapiens, 72 h
T24 = test: Cell viability analysis, bladder cancer T24; assay type: cell-based, human; conditions: Homo sapiens, T-24, 72 h; T24; repeated experiment; read-out: The results of antibiotic drug inhibiting cancer cell lines (cell viability analysis), T24
[13] = system: MCF7 (Mammary Gland, Adenocarcinoma); test: Cell viability analysis, breast cancer MCF7; assay type: cell-based, human; conditions: Homo sapiens, MCF7, 72 h
[14] = system: MDA-MB-231 (Mammary Gland, Adenocarcinoma); test: Cell viability analysis, breast cancer MDA-MB-231; assay type: cell-based, human; conditions: Homo sapiens, MDA-MB-231, 72 h; MDA-MB231; repeated experiment; read-out: The results of antibiotic drug inhibiting cancer cell lines (cell viability analysis), MDA-MB231
AsPC-1 = test: Cell viability analysis, pancreatic cancer AsPC-1; assay type: cell-based, human; conditions: Homo sapiens, ASPC1, 72 h; AsPC-1; repeated experiment; read-out: The results of antibiotic drug inhibiting cancer cell lines (cell viability analysis), AsPC-1
NIH: OVCAR-3 = test: Cell viability analysis, ovarian cancer NIH: OVCAR-3; assay type: cell-based, human; conditions: Homo sapiens, 72 h; NIH-OVCAR-3; repeated experiment; read-out: The results of antibiotic drug inhibiting cancer cell lines (cell viability analysis), NIH-OVCAR-3
TOV-21G = test: Cell viability analysis, ovarian cancer TOV-21G; assay type: cell-based, human; conditions: Homo sapiens, TOV21G, 72 h; TOV-21G; repeated experiment; read-out: The results of antibiotic drug inhibiting cancer cell lines (cell viability analysis), TOV-21G
[15] = system: SAS (Tongue squamous cell carcinoma); test: Cell viability analysis, tongue cancer SAS; assay type: cell-based, human; conditions: Homo sapiens, 72 h; SAS; repeated experiment; read-out: The results of antibiotic drug inhibiting cancer cell lines (cell viability analysis), SAS
U-2OS = test: Cell viability analysis, osteosarcoma U-2OS; assay type: cell-based, human; conditions: Homo sapiens, 72 h; U2OS; repeated experiment; read-out: The results of antibiotic drug inhibiting cancer cell lines (cell viability analysis), U2OS
[16] = system: 786-O (Renal adenocarcinoma); test: Cell viability analysis, renal cancer 786-O; assay type: cell-based, human; conditions: Homo sapiens, 786-0, 72 h; 786-O; repeated experiment; read-out: The results of antibiotic drug inhibiting cancer cell lines (cell viability analysis), 786-O
[17] = system: HL-60 (Acute Promyelocytic Leukemia); test: Cell viability analysis, leukemia HL-60; assay type: cell-based, human; conditions: Homo sapiens, HL-60, 72 h, drug 10 μM, 72 hours, WST-1, OD450 nm; read-out: cell viability (survival rate), HL-60
[18] = system: HCT116 (p53+) (Colorectal Carcinoma)
[19] = H1650, repeated experiment, read-out: The results of antibiotic drug inhibiting cancer cell lines (cell viability analysis), H1650
[20] = drug 10 μM, 72 hours, WST-1, OD450 nm, read-out: cell viability (survival rate), H1650
[21] = A549, repeated experiment, read-out: The results of antibiotic drug inhibiting cancer cell lines (cell viability analysis), A549
[22] = drug 10 μM, 72 hours, WST-1, OD450 nm, read-out: cell viability (survival rate), A549
[23] = AGS, repeated experiment, read-out: The results of antibiotic drug inhibiting cancer cell lines (cell viability analysis), AGS
[24] = drug 10 μM, 72 hours, WST-1, OD450 nm, read-out: cell viability (survival rate), AGS
[25] = MKN-45, repeated experiment, read-out: The results of antibiotic drug inhibiting cancer cell lines (cell viability analysis), MKN-45
[26] = drug 10 μM, 72 hours, WST-1, OD450 nm, read-out: cell viability (survival rate), MKN-45
[27] = HepG2, repeated experiment, read-out: The results of antibiotic drug inhibiting cancer cell lines (cell viability analysis), HepG2
[28] = drug 10 μM, 72 hours, WST-1, OD450 nm, read-out: cell viability (survival rate), HepG2
[29] = read-out: The results of antibiotic drug inhibiting cancer cell lines (cell viability analysis), LoVo, repeated experiment
[30] = read-out: cell viability (survival rate), LoVo, drug 10 μM, 72 hours, WST-1, OD450 nm
[31] = A375, repeated experiment, read-out: The results of antibiotic drug inhibiting cancer cell lines (cell viability analysis), A375
[32] = drug 10 μM, 72 hours, WST-1, OD450 nm, read-out: cell viability (survival rate), A375
[33] = repeated experiment, read-out: The results of antibiotic drug inhibiting cancer cell lines (cell viability analysis), HeLa
[34] = drug 10 μM, 72 hours, WST-1, OD450 nm, read-out: cell viability (survival rate), HeLa
[35] = drug 10 μM, 72 hours, WST-1, OD450 nm, read-out: cell viability (survival rate), TSGH
[36] = MCF-7, repeated experiment, read-out: The results of antibiotic drug inhibiting cancer cell lines (cell viability analysis), MCF-7
[37] = drug 10 μM, 72 hours, WST-1, OD450 nm, read-out: cell viability (survival rate), MCF7

Row | Structure (SMILES) | inhibition effect on different cancer cell lines (cancer cell lines) | viability at 10 µM [1, 19] [%] | viability at 10 µM [1, 20] [%] | viability at 10 µM [2, 21] [%] | viability at 10 µM [2, 22] [%] | viability at 10 µM [3, 23] [%] | viability at 10 µM [3, 24] [%] | viability at 10 µM [4, 25] [%] | viability at 10 µM [4, 26] [%] | viability at 10 µM [5, 27] [%] | viability at 10 µM [5, 28] [%] | viability at 10 µM [6] [%] | viability at 10 µM [7, 29] [%] | viability at 10 µM [7, 30] [%] | viability at 10 µM [8, 31] [%] | viability at 10 µM [8, 32] [%] | viability at 10 µM [9] [%] | viability at 10 µM [10, 33] [%] | viability at 10 µM [10, 34] [%] | viability at 10 µM [11] [%] | also measured
1 | CC(C)(C)CC(C)(C)c1ccc(O)c(Cc2ccc(Cl)cc2Cl)c1 [Clofoctol] | significant inhibition effect | 69.6 | 77 | 90.6 | 55.6 | 83.9 | 86.7 | 117 | 73.6 | 114 | 77.9 | 135 | 67.1 | 74.7 | 109 | 34.5 | 94.6 | 98 | 58 | 117 | viability at 10 µM ([12]; TSGH-8301, repeated experiment, read-out: The results of antibiotic drug inhibiting cancer cell lines (cell viability analysis), TSGH-8301): 109%; viability at 10 µM [12, 35]: 72.3%; viability at 10 µM (T24): 90.8%; viability at 10 µM [13, 36]: 83%; viability at 10 µM [13, 37]: 48.1%; viability at 10 µM [14]: 102%; viability at 10 µM (AsPC-1): 78.7%; viability at 10 µM (NIH: OVCAR-3): 97.8%; viability at 10 µM (TOV-21G): 73.1%; viability at 10 µM [15]: 73.2%; viability at 10 µM (U-2OS): 74.9%; viability at 10 µM [16]: 105%; viability at 10 µM [17]: 83%; viability [18]: 76.6%
2 | CCc1cc2c(cc1CC)CC(NC[C@H](O)c1ccc(O)c3[nH]c(=O)ccc13)C2 [Indacaterol Maleate] | significant inhibition effect | 86.6 | 36 | 79.6 | 65.1 | 50.2 | 54.1 | 84.5 | 30.3 | 84.4 | 81.2 | 97.6 | 79.1 | 61.4 | 87.2 | 45.7 | 82.1 | 96.6 | 71.8 | 94.3 | viability at 10 µM [12, 35]: 56%; viability at 10 µM (T24): 122%; viability at 10 µM [13, 36]: 72.5%; viability at 10 µM [13, 37]: 68.7%; viability at 10 µM [14]: 103%; viability at 10 µM (AsPC-1): 85.4%; viability at 10 µM (NIH: OVCAR-3): 79.3%; viability at 10 µM (TOV-21G): 95.3%; viability at 10 µM [15]: 61.7%; viability at 10 µM (U-2OS): 62.6%; viability at 10 µM [16]: 82.6%; viability at 10 µM [17]: 87.2%; viability [18]: 91.9%
